What all share (assay type): biochemical
One assay addresses T1, bovine trypsin (Bos taurus, UniProt P00760).
T1 sequence (P00760 24-246): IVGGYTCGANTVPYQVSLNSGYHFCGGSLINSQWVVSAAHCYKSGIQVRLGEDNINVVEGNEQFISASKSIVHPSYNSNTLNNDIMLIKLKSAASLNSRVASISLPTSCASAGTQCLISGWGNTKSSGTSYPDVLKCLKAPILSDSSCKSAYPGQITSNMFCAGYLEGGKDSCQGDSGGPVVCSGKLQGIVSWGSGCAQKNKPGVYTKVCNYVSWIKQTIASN
Description: Inactivation rate of bovine trypsin, incubation method. The conditions noted are these: for kobsd /[I] bovine trypsin: Table I, 0.1M Hepes, 0.01M CaCl2 pH 7.5, 25° C., 2% DMSO, substrate Z--Arg--SBzl, NI = no inhibition after 25 min; for kobs /[I] bovine trypsin: Table II, 0.13 μM trypsin, 0.25-42 μM inhibitor, 80 mM Hepes pH 7.5, 1 mM CaCl2, 8% DMSO, 25° C., NI = no inhibition. How it is done:
(§1) Inactivation rates of serine proteases by aryl diesters of peptidyl derivatives of α-aminoalkylphosphonates were measured by the incubation method. An aliquot of inhibitor (25 or 50 μl) in Me2 SO was added to a buffered enzyme solution (0.01-2.3 μM) to initiate the inactivation. Aliquots (50 μl) were withdrawn at various intervals and the residual enzymatic activity was measured. Me2 SO concentration in the reaction mixture was 8-12% (v/v). A 0.1 M HEPES, 0.01 M CaCl2, pH 7.5 buffer was utilized for trypsin and trypsin-like enzymes. A 0.1 M HEPES, 0.5 M NaCl, pH 7.5, was utilized for the other serine proteases. Peptide thioesters or peptide nitroanilides with the appropriate sequences were used as substrates for various serine proteases. All peptide thioesters hydrolysis rates were measured with the assay mixture containing 4,4'-dithiodipyridine {ε324 =19800 M^-1 cm^-1; Grasetti & Murray, Arch. Biochem. Biophys. 1967, 119, 41-48}. Peptide 4-nitroanilide hydrolysis was measured at 410 nm {ε410 =8800 M^-1 cm^-1; Erlanger et al., Arch. Biochem. Biophys. 1961, 95, 271-278}. First order inactivation rate constants (Kobs) were obtained from plots of In vt /vo vs time, and the correlation coefficients were greater then 0.98.
(§2) ^a Inhibition constants were measured in 0.1M Hepes, 0.01M CaCl2
(§3) pH 7.5 for trypsin, granzymes A, and K, and in 0.1M Hepes, 10% glycerol,
(§4) 10 mM heparin, pH 7.5 for mast cell tryptase, and at 25° C. The
(§5) reaction mixtures contained 2% DMSO for trypsin, 7.6% for granzyme A, and
(§6) 7.1% for granzyme K and tryptase. The substrate was Z--Arg--SBzl for
(§7) granzymes and trypsin, and Z--Arg--SBzl or Z--Lys--SBzl for tryptase in
(§8) the presence of DTNB. The inhibitor # concentration ranged from 0.001 to
(§9) ^b NI, no inhibition after 25 min of incubation with enzyme.
(§10) ^a Enzyme was incubated with the inhibitor in 250 μL of the proper
(§11) buffer at 25° C. Specifically, the inhibition reation mixtures wer
composed of: 0.13 μM trypsin, 0.25-42 μM inhibitor in an 80 mM
(§12) Hepes, pH 7.5 buffer containing 1 mM CaCl2 and 8% DMSO; 0.07 μM
(§13) DMSO. Aliquots of 25 μL were withdrawn at various intervals and the
(§14) residual enzymatic activity was measured as described in experimental
(§15) section. The kobs values were calculated from pseudofirst-order
(§16) ^a Enzyme (0.06-0.5 μM) was incubated with the inhibitor (0.25-42
(§17) μM) in 250 μL of the proper buffer containing 9% DMSO at 25°
(§18) C. The final inhibition reaction mixtures are given in the footnote to
(§19) Table 1. Aliquots of 25 μL were withdrawn at various intervals and the […]

A further assay concerns the target T2, human granzyme A (Homo sapiens, UniProt P12544).
T2 sequence (P12544 29-262): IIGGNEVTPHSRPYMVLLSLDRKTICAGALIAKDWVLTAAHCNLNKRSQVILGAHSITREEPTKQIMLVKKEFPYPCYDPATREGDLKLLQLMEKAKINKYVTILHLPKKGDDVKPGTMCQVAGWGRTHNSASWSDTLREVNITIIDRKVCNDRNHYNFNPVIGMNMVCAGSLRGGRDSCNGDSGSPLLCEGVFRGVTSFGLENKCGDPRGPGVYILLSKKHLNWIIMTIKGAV
Description: Inactivation rate of human granzyme A, incubation method. The conditions noted are these: Table I; 0.1M Hepes, 0.01M CaCl2 pH 7.5, 25° C., 7.6% DMSO, substrate Z--Arg--SBzl. As for the experimental part:
as §1, §2, §3, §4, §5, §6, §7, §8, §9

Another assay has as its target T3, rat granzyme K (Rattus norvegicus, UniProt P49864).
T3 sequence (P49864 26-258): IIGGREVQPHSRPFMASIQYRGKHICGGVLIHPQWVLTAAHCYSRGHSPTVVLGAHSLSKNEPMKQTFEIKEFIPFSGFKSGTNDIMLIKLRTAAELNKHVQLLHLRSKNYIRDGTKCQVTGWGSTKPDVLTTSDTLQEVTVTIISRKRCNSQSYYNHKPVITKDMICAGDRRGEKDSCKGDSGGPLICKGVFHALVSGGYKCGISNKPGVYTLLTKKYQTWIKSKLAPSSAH
Description: Inactivation rate of rat granzyme K, incubation method. Conditions: Table I; 0.1M Hepes, 0.01M CaCl2 pH 7.5, 25° C., 7.1% DMSO, substrate Z--Arg--SBzl; NI = no inhibition after 25 min of incubation. How it is done: as §1, §2, §3, §4, §5, §6, §7, §8, §9

A further assay addresses mast cell tryptase (Homo sapiens, UniProt Q15661). Description: Inactivation rate of mast cell tryptase, incubation method. The conditions noted are these: for kobsd /[I] mast cell tryptase: 0.1M Hepes, 10% glycerol, 10 mM heparin, pH 7.5, 25° C., 7.1% DMSO, NI = no inhibition after 25 min of incubation; for kobs /[I] mast cell tryptase: 0.07 μM tryptase, 20-66 μM inhibitor, Hepes pH 7.5, heparin, 9% glycerol, 8% DMSO, 25° C., NI = no inhibition. As for the experimental part:
as §1, §2, §3, §4, §5, §6, §7, §8, §9, §10
(§20) containing 428 mM NaCl and 8% DMSO; 0.07 μM tryptase, 20-66 μM
inhibitor # in an mM Hepes, pH 7.5 buffer containing 8 mM heparin, 166 m
NaCl, 0.8 mM Mes, 9% glycerol and 8% DMSO; 0.42 μM factor Xa, 66 μM
as §13, §14, §15, §16, §17, §18, §19

In the next assay the target is T4, human thrombin (Homo sapiens, UniProt P00734).
T4 construct: bovine trypsin, human thrombin
The conditions noted are these: Table II; for kobs /[I] human thrombin: 0.07 μM thrombin, 0.25-42 μM inhibitor, 80 mM Hepes pH 7.5, 428 mM NaCl, 8% DMSO, 25° C., NI = no inhibition. How it is done: as §1, with “271-278}.” for “271-278}. First order inactivation rate constants (Kobs) were obtained from plots of In vt /vo vs time, and the correlation coefficients were greater then 0.98.”
as §10, §11, §12
thrombin, 0.25-42 μM inhibitor in an 80 mM Hepes, pH 7.5 buffer
as §20, §13, §14, §15, §16, §17, §18, §19

mast cell tryptase, sequence (Q15661 31-275): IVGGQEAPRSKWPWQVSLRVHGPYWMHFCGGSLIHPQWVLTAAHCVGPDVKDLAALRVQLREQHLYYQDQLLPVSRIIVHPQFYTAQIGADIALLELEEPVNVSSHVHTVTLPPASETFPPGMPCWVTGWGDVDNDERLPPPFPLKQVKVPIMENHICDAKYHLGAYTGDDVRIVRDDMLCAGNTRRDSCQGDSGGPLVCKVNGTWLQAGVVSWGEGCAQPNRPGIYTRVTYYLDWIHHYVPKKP

`CC(NC(=O)C(CC(=O)O)NC(=O)OCc1ccccc1)C(=O)NC(c1ccc(C(=N)N)cc1)P(=O)(Oc1ccccc1)Oc1ccccc1` (mixture of isomers) [Cbz--Asp--Ala-(4-AmPhGly)^P (OPh)2]: at bovine trypsin, the “kobsd /[I] bovine trypsin” value came to 2550 ± 145 M⁻¹ s⁻¹ and the “kobs /[I] bovine trypsin” value is listed as 2,550 ± 145 M^-1 s^-1. Further, the “kobsd /[I] human granzyme A” value at human granzyme A was found to be 240 ± 5 M⁻¹ s⁻¹. Moreover, at rat granzyme K, the “kobsd /[I] rat granzyme K” value stood at 6 M⁻¹ s⁻¹. Also, on mast cell tryptase (Table I), the “kobsd /[I] mast cell tryptase” value was 0.7 M⁻¹ s⁻¹. Besides, at human thrombin, the “kobs /[I] human thrombin” value turned out to be 110 ± 12 M⁻¹ s⁻¹.
On to `C[C@@H](O)[C@H](NC(=O)OCc1ccccc1)C(=O)NC(c1ccc(C(=N)N)cc1)P(=O)(Oc1ccccc1)Oc1ccccc1` (some centres unmarked) [Cbz--Thr-(4-AmPhGly)^P (OPh)2], for which, on bovine trypsin, the “kobsd /[I] bovine trypsin” value came out at 97 M⁻¹ s⁻¹ and the “kobs /[I] bovine trypsin” value turned out to be 97 ± 2 M⁻¹ s⁻¹. The “kobsd /[I] human granzyme A” value at human granzyme A came out at 2220 ± 40 M⁻¹ s⁻¹. Besides, the “kobsd /[I] rat granzyme K” value on rat granzyme K came to 3 M⁻¹ s⁻¹. Further, the “kobs /[I] human thrombin” value at human thrombin worked out at 61 ± 3 M⁻¹ s⁻¹.
In the case of `CC(C)C(NC(=O)OCc1ccccc1)C(=O)NC(c1ccc(C(=N)N)cc1)P(=O)(Oc1ccccc1)Oc1ccccc1` (mixture of isomers) [Cbz--Val-(4-AmPhGly)^P (OPh)2], at bovine trypsin, the “kobsd /[I] bovine trypsin” value was determined as 41 ± 3 M⁻¹ s⁻¹ and the “kobs /[I] bovine trypsin” value is 18 ± 2 M⁻¹ s⁻¹. For the same compound, the “kobsd /[I] human granzyme A” value at human granzyme A came out at 6.7 ± 0.1 M⁻¹ s⁻¹. Besides, the “kobsd /[I] rat granzyme K” value at rat granzyme K turned out to be 0.7 ± 0.04 M⁻¹ s⁻¹. The “kobsd /[I] mast cell tryptase” value at mast cell tryptase (Table I) turned out to be 21.2 ± 0.2 M⁻¹ s⁻¹. The “kobs /[I] mast cell tryptase” value on mast cell tryptase (Table II) stood at 21.2 ± 0.2 M⁻¹ s⁻¹. Moreover, on human thrombin, the “kobs /[I] human thrombin” value is 5.5 ± 0.4 M⁻¹ s⁻¹.
In the case of `Cl.N=C(N)c1ccc(C(NC(=O)[C@@H]2CCCN2C(=O)c2cccc(Oc3ccccc3)c2)P(=O)(Oc2ccccc2)Oc2ccccc2)cc1` (some centres unmarked) [Diphenyl N-(N-(3-Phenoxybenzoylprolyl))amino(4-amidinophenyl)methanephosphonate Hydrochloride], on bovine trypsin, the “kobsd /[I] bovine trypsin” value was 4080 ± 32 M⁻¹ s⁻¹ and the “kobs /[I] bovine trypsin” value was 4,080 ± 32 M^-1 s^-1. Further, the “kobsd /[I] human granzyme A” value on human granzyme A came out at 330 ± 58 M⁻¹ s⁻¹. In addition, the “% Inh mast cell tryptase” value on mast cell tryptase (Table I, printed in the kobsd/[I] column) was determined as 7%. Further, at mast cell tryptase (Table II, printed in the kobs/[I] column), the “% Inh mast cell tryptase” value is 7%. Moreover, the “kobs /[I] human thrombin” value on human thrombin is 1,340 ± 225 M^-1 s^-1.
As to `N=C(N)c1ccc(C(NC(=O)[C@@H]2CCCN2C(=O)CC(c2ccccc2)c2ccccc2)P(=O)(Oc2ccccc2)Oc2ccccc2)cc1` (some centres unmarked) [3,3-Diphenylpropanoyl-Pro-(4-AmPhGly)^P (OPh)2], at bovine trypsin, the “kobsd /[I] bovine trypsin” value worked out at 2660 ± 40 M⁻¹ s⁻¹ and the “kobs /[I] bovine trypsin” value is listed as 2,660 ± 40 M^-1 s^-1. Also, at human granzyme A, the “kobsd /[I] human granzyme A” value was 250 ± 8 M⁻¹ s⁻¹. For the same compound, the “kobsd /[I] rat granzyme K” value on rat granzyme K was 1830 ± 140 M⁻¹ s⁻¹. For the same compound, at human thrombin, the “kobs /[I] human thrombin” value is on record as 80,300 ± 368 M^-1 s^-1.
As to `C[C@H](NC(=O)[C@H](CC(=O)OC(C)(C)C)NC(=O)OCc1ccccc1)C(=O)NC(c1ccc(C(=N)N)cc1)P(=O)(Oc1ccccc1)Oc1ccccc1` (some centres unmarked) [Cbz--Asp(O-t-Bu)--Ala-(4-AmPhGly)^P (OPh)2], at bovine trypsin, the “kobsd /[I] bovine trypsin” value is 2000 ± 24 M⁻¹ s⁻¹ and the “kobs /[I] bovine trypsin” value is given as 2,000 ± 24 M^-1 s^-1. Further, the “kobsd /[I] human granzyme A” value at human granzyme A amounted to 280 ± 5 M⁻¹ s⁻¹. In addition, the “kobsd /[I] mast cell tryptase” value on mast cell tryptase (Table I) was found to be 3 M⁻¹ s⁻¹. Moreover, at mast cell tryptase (Table II), the “kobs /[I] mast cell tryptase” value amounted to 3 ± 0 M⁻¹ s⁻¹. For the same compound, the “kobs /[I] human thrombin” value on human thrombin came out at 480 ± 93 M⁻¹ s⁻¹.
Consider `CC(C)CC(NC(=O)OCc1ccccc1)C(=O)NC(c1ccc(C(=N)N)cc1)P(=O)(Oc1ccccc1)Oc1ccccc1` (mixture of isomers) [Cbz--Leu-(4-AmPhGly)^P (OPh)2], for which, at bovine trypsin, the “kobsd /[I] bovine trypsin” value amounted to 50 ± 1 M⁻¹ s⁻¹ and the “kobs /[I] bovine trypsin” value turned out to be 1.3 ± 0.1 M⁻¹ s⁻¹. For the same compound, the “kobsd /[I] human granzyme A” value on human granzyme A worked out at 6.3 ± 0.7 M⁻¹ s⁻¹. In addition, at mast cell tryptase (Table I), the “kobsd /[I] mast cell tryptase” value was 0.3 M⁻¹ s⁻¹. At mast cell tryptase (Table II), the “kobs /[I] mast cell tryptase” value is 0.3 M⁻¹ s⁻¹. For the same compound, at human thrombin (printed in the kobs/[I] column), the “% Inh human thrombin” value was 19%.
For `CC(NC(=O)C(CCCCN)NC(=O)OCc1ccccc1)C(=O)NC(c1ccc(C(=N)N)cc1)P(=O)(Oc1ccccc1)Oc1ccccc1` (mixture of isomers) [Cbz--Lys--Ala-(4-AmPhGly)^P (OPh)2], at bovine trypsin, the “kobsd /[I] bovine trypsin” value is 3140 ± 262 M⁻¹ s⁻¹ and the “kobs /[I] bovine trypsin” value is reported as 3,140 ± 262 M^-1 s^-1. Further, the “kobsd /[I] human granzyme A” value on human granzyme A came to 90 ± 9 M⁻¹ s⁻¹. Further, on mast cell tryptase (Table I), the “kobsd /[I] mast cell tryptase” value turned out to be 2 M⁻¹ s⁻¹. The “kobs /[I] mast cell tryptase” value at mast cell tryptase (Table II) amounted to 2.0 ± 0.0 M⁻¹ s⁻¹. At human thrombin, the “kobs /[I] human thrombin” value turned out to be 180 ± 7 M⁻¹ s⁻¹.

These data come from patent publication US5952307A, “Basic α-aminoalkylphosphonate derivatives” (priority 1997, dated 1999).
